Measured values as given in patent US20100227313A1, “Methods and Compositions for Determining Altered Susceptibility of HIV-1 to Protease Inhibitor Treatment” (priority 2007, published 2010).

Test system: HIV-1
Assay: Resistance test vector (PHENOSENSE) phenotypic susceptibility assay, fold change in IC50, correlated with genotype (Fisher's Exact test, odds ratio)
Type: cell-based, human immunodeficiency virus type 1
From the text: See Petropoulos et al., 2000, Antimicrob. Agents Chemother. 44:920-928; U.S. Pat. Nos. 5,837,464 and 6,242,187. PHENOSENSE™ is a phenotypic assay that achieves the benefits of phenotypic testing and overcomes the drawbacks of previous assays.
PHENOSENSE™ can obtain results with only one round of viral replication, thereby avoiding selection of subpopulations of virus that can occur during preparation of viral stocks required for assays that rely on fully infectious virus.
A resistance test vector (“RTV”) can then be constructed by incorporating the amplified viral gene sequences into a replication defective viral vector by using any method known in the art of incorporating gene sequences into a vector. In one embodiment, restrictions enzymes and conventional cloning methods are used. See Sambrook et al., 2001, Molecular Cloning: A Laboratory Manual, Cold Spring Harbor Laboratory, 3rd ed., NY; and Ausubel et al., 1989, Current Protocols in Molecular Biology, Greene Publishing Associates and Wiley Interscience, NY. In a preferred embodiment, ApaI and PinAI restriction enzymes are used. Preferably, the replication defective viral vector is the indicator gene viral vector (“IGVV”). In a preferred embodiment, the viral vector contains a means for detecting replication of the RTV. Preferably, the viral vector contains a luciferase expression cassette.
The assay can be performed by first co-transfecting host cells with RTV DNA and a plasmid that expresses the envelope proteins of another retrovirus, for example, amphotropic murine leukemia virus (MLV). Following transfection, viral particles can be harvested from the cell culture and used to infect fresh target cells in the presence of varying amounts of anti-viral drug(s). The completion of a single round of viral replication in the fresh target cells can be detected by the means for detecting replication contained in the vector. In a preferred embodiment, the completion of a single round of viral replication results in the production of luciferase. By monitoring the amount of, e.g., luciferase activity in the presence of the varying amounts of antiviral drug(s), a resistance curve can be constructed by plotting luciferase activity versus drug concentration. The susceptibility of an HIV, or population of HIV, can be determined by measuring the concentration of antiviral drug at which the luciferase activity detected is half-maximal. This number, the IC50, provides a standard and convenient measure of drug resistance.
Patient derived segment(s) corresponding to the HIV protease and reverse transcriptase coding regions were amplified by the reverse transcription polymerase chain reaction method (RT PCR) using viral RNA isolated from viral particles present in the plasma or serum of HIV infected individuals as follows. Viral RNA was isolated from the plasma or serum using oligo-dT magnetic beads (Dynal Biotech, Oslo, Norway), followed by washing and elution of viral RNA. The RT PCR protocol was divided into two steps. A retroviral reverse transcriptase (e.g. Moloney MuLV reverse transcriptase (Roche Molecular Systems, Inc., Branchburg, N.J.; Invitrogen, Carlsbad, Calif.), or avian myeloblastosis virus (AMV) reverse transcriptase, (Boehringer Mannheim, Indianapolis, Ind.) was used to copy viral RNA into cDNA. The cDNA was then amplified using a thermostable DNA polymerase (e.g. Taq (Roche Molecular Systems, Inc., Branchburg, N.J.), Tth (Roche Molecular Systems, Inc., Branchburg, N.J.), PRIMEZYME™ (isolated from Thermus brockianus, Biometra, Gottingen, Germany)) or a combination of thermostable polymerases as described for the performance of “long PCR” (Barnes, W.M., 1994, Proc. Natl. Acad. Sci, USA 91, 2216 20) (e.g. Expand High Fidelity PCR System (Taq+Pwo), (Boehringer Mannheim. Indianapolis, Ind.); GENEAMP XL™ PCR kit (Tth+Vent), (Roche Molecular Systems, Inc., Branchburg, N.J.); or […] II®, Clontech, Palo Alto, Calif.)

CC(C)CN(C[C@@H](O)[C@H](Cc1ccccc1)NC(=O)O[C@H]1CO[C@H]2OCC[C@H]21)S(=O)(=O)c1ccc(N)cc1 [DRV, darunavir]
Odds Ratio (mutation A71I in PR, reduced susceptibility (FC>2)): 1.74 | Odds Ratio (mutation A71L in PR, reduced susceptibility (FC>2)): 16.53 | Odds Ratio (mutation A71T in PR, increased susceptibility (Table 3)): 0.74 | Odds Ratio (mutation A431I in gag, reduced susceptibility (FC>2)): 5.60 | Odds Ratio (mutation A431V in gag, reduced susceptibility (FC>2)): 1.94 | Odds Ratio (mutation C67F in PR, reduced susceptibility (FC>2)): 3.72 | Odds Ratio (mutation C95F in PR, reduced susceptibility (FC>2)): 3.13 | Odds Ratio (mutation D30N in PR, increased susceptibility (Table 3)): 0.20 | Odds Ratio (mutation D425E in gag, reduced susceptibility (FC>2)): 1.49 | Odds Ratio (mutation E35N in PR, reduced susceptibility (FC>2)): 2.90 | Odds Ratio (mutation E428D in gag, reduced susceptibility (FC>2)): 2.41 | Odds Ratio (mutation E467K in gag, reduced susceptibility (FC>2)): 2.41 | Odds Ratio (mutation E468K in gag, reduced susceptibility (FC>2)): 2.24 | Odds Ratio (mutation F53L in PR, reduced susceptibility (FC>2)): 2.30 | Odds Ratio (mutation F53Y in PR, reduced susceptibility (FC>2)): 3.43 | Odds Ratio (mutation F463L in gag, reduced susceptibility (FC>2)): 1.68 | Odds Ratio (mutation F463S in gag, reduced susceptibility (FC>2)): 3.18 | Odds Ratio (mutation F463V in gag, reduced susceptibility (FC>2)): 2.89 | Odds Ratio (mutation F465L in gag, reduced susceptibility (FC>2)): 1.66 | Odds Ratio (mutation F465S in gag, reduced susceptibility (FC>2)): 2.45 | Odds Ratio (mutation G16A in PR, reduced susceptibility (FC>2)): 3.73 | Odds Ratio (mutation G73A in PR, reduced susceptibility (FC>2)): 8.81 | Odds Ratio (mutation G73C in PR, reduced susceptibility (FC>2)): 2.24 | Odds Ratio (mutation G73T in PR, reduced susceptibility (FC>2)): 7.84 | Odds Ratio (mutation H69R in PR, reduced susceptibility (FC>2)): 2.59 | Odds Ratio (mutation H441Q in gag, reduced susceptibility (FC>2)): 1.99 | Odds Ratio (mutation H441Y in gag, increased susceptibility (Table 3)): 0.59 | Odds Ratio (mutation I13V in PR, reduced susceptibility (FC>2)): 1.71 | Odds Ratio (mutation I15V in PR, reduced susceptibility (FC>2)): 1.53 | Odds Ratio (mutation I47V in PR, reduced susceptibility (FC>2)): 13.64 | Odds Ratio (mutation I50L in PR, increased susceptibility (Table 3)): 0.12 | Odds Ratio (mutation I54A in PR, reduced susceptibility (FC>2)): 2.37 | Odds Ratio (mutation I54L in PR, reduced susceptibility (FC>2)): 5.50 | Odds Ratio (mutation I54M in PR, reduced susceptibility (FC>2)): 14.47 | Odds Ratio (mutation I64L in PR, increased susceptibility (Table 3)): 0.62 | Odds Ratio (mutation I64V in PR, increased susceptibility (Table 3)): 0.84 | Odds Ratio (mutation I66F in PR, reduced susceptibility (FC>2)): 3.25 | Odds Ratio (mutation I66V in PR, reduced susceptibility (FC>2)): 4.86 | Odds Ratio (mutation I72L in PR, reduced susceptibility (FC>2)): 3.02 | Odds Ratio (mutation I84V in PR, reduced susceptibility (FC>2)): 7.06 | Odds Ratio (mutation I85V in PR, reduced susceptibility (FC>2)): 2.76 | Odds Ratio (mutation I93L in PR, increased susceptibility (Table 3)): 0.88 | Odds Ratio (mutation I437V in gag, reduced susceptibility (FC>2)): 1.95 | Odds Ratio (mutation K20R in PR, reduced susceptibility (FC>2)): 1.90 | Odds Ratio (mutation K20T in PR, reduced susceptibility (FC>2)): 1.54 | Odds Ratio (mutation K20V in PR, reduced susceptibility (FC>2)): 3.40 | Odds Ratio (mutation K43R in PR, increased susceptibility (Table 3)): 0.30 | Odds Ratio (mutation K43T in PR, reduced susceptibility (FC>2)): 3.72 | Odds Ratio (mutation K45R in PR, increased susceptibility (Table 3)): 0.35 | Odds Ratio (mutation K55N in PR, reduced susceptibility (FC>2)): 10.28 | Odds Ratio (mutation K55R in PR, reduced susceptibility (FC>2)): 2.70 | Odds Ratio (mutation L10F in PR, reduced susceptibility (FC>2)): 2.59 | Odds Ratio (mutation L19P in PR, reduced susceptibility (FC>2)): 7.16 | Odds Ratio (mutation L23I in PR, reduced susceptibility (FC>2)): 2.10 | Odds Ratio (mutation L24F in PR, reduced susceptibility (FC>2)): 8.57 | Odds Ratio (mutation L33F in PR, reduced susceptibility (FC>2)): 6.78 | Odds Ratio (mutation L63A in PR, increased susceptibility (Table 3)): 0.53 | Odds Ratio (mutation L63Q in PR, increased susceptibility (Table 3)): 0.49 | Odds Ratio (mutation L63S in PR, increased susceptibility (Table 3)): 0.54 | Odds Ratio (mutation L76V in PR, reduced susceptibility (FC>2)): 11.18 | Odds Ratio (mutation L89I in PR, reduced susceptibility (FC>2)): 2.16 | Odds Ratio (mutation L89M in PR, reduced susceptibility (FC>2)): 1.51 | Odds Ratio (mutation L89V in PR, reduced susceptibility (FC>2)): 44.56 | Odds Ratio (mutation L449V in gag, reduced susceptibility (FC>2)): 4.73 | Odds Ratio (mutation L486S in gag, increased susceptibility (Table 3)): 0.51 | Odds Ratio (mutation M36L in PR, reduced susceptibility (FC>2)): 2.20 | Odds Ratio (mutation M46I in PR, reduced susceptibility (FC>2)): 1.92 | Odds Ratio (mutation M46L in PR, reduced susceptibility (FC>2)): 1.60 | Odds Ratio (mutation N88D in PR, increased susceptibility (Table 3)): 0.34 | Odds Ratio (mutation N88S in PR, increased susceptibility (Table 3)): 0.17 | Odds Ratio (mutation P79A in PR, reduced susceptibility (FC>2)): 5.35 | Odds Ratio (mutation P79S in PR, reduced susceptibility (FC>2)): 4.96 | Odds Ratio (mutation P453L in gag, reduced susceptibility (FC>2)): 1.80 | Odds Ratio (mutation P453V in gag, reduced susceptibility (FC>2)): 6.86 | Odds Ratio (mutation P459T in gag, reduced susceptibility (FC>2)): 1.69 | Odds Ratio (mutation Q58E in PR, reduced susceptibility (FC>2)): 2.41 | Odds Ratio (mutation Q61N in PR, reduced susceptibility (FC>2)): 2.48 | Odds Ratio (mutation R452K in gag, reduced susceptibility (FC>2)): 2.99 | Odds Ratio (mutation R452S in gag, reduced susceptibility (FC>2)): 3.92 | Odds Ratio (mutation S451N in gag, increased susceptibility (Table 3)): 0.68 | Odds Ratio (mutation S451T in gag, reduced susceptibility (FC>2)): 1.78 | Odds Ratio (mutation S462N in gag, reduced susceptibility (FC>2)): 2.29 | Odds Ratio (mutation S488A in gag, reduced susceptibility (FC>2)): 2.02 | Odds Ratio (mutation S498L in gag, increased susceptibility (Table 3)): 0.48 | Odds Ratio (mutation S499L in gag, increased susceptibility (Table 3)): 0.56 | Odds Ratio (mutation T4A in PR, reduced susceptibility (FC>2)): 10.65 | Odds Ratio (mutation T4S in PR, reduced susceptibility (FC>2)): 2.80 | Odds Ratio (mutation T12P in PR, reduced susceptibility (FC>2)): 1.84 | Odds Ratio (mutation V11I in PR, reduced susceptibility (FC>2)): 12.85 | Odds Ratio (mutation V32I in PR, reduced susceptibility (FC>2)): 18.66 | Odds Ratio (mutation V77I in PR, increased susceptibility (Table 3)): 0.64 | Odds Ratio (mutation V82A in PR, reduced susceptibility (FC>2)): 1.12 | Odds Ratio (mutation V82C in PR, reduced susceptibility (FC>2)): 3.67 | Odds Ratio (mutation V82F in PR, reduced susceptibility (FC>2)): 5.47 | Odds Ratio (mutation V82I in PR, reduced susceptibility (FC>2)): 2.31 | Odds Ratio (mutation V82L in PR, reduced susceptibility (FC>2)): 5.44 | Odds Ratio (mutation V82T in PR, reduced susceptibility (FC>2)): 1.84
